These results are taken from ChEMBL document CHEMBL1125003, “Synthesis, biological evaluation, and quantitative structure-activity relationship analysis of [beta-(Aroylamino)ethyl]piperazines and -piperidines and [2-[(Arylamino)carbonyl]ethyl]piperazines, -pyrazinopyridoindoles, and -pyrazinoisoquinolines. A new class of potent H1 antagonists” (J Med Chem, 1990).

Values joined by “and” are separate entries in the source; they are usually repeats but may differ in a detail not shown here. Identical values can stand only once.

Histamine H1 receptor, sequence (P31389 whole entry): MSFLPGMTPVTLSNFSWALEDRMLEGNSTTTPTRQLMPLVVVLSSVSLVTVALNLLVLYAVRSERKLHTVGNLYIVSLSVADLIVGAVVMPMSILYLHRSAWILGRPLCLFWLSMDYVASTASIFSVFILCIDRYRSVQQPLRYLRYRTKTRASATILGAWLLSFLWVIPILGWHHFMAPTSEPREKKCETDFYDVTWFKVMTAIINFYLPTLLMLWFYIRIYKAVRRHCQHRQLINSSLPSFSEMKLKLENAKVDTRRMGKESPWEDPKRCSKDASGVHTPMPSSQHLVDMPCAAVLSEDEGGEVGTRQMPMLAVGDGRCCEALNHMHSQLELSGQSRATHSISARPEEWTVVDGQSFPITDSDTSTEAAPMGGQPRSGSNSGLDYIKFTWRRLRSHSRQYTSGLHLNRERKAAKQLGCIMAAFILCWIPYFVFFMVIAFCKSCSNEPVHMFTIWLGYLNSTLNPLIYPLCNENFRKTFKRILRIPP

The first assay concerns the target Histamine H1 receptor (Cavia porcellus, UniProt P31389). The experiment in a line: Antihistaminic activity against Histamine H1 receptor was measured on isolated terminal part of guinea pig ileum. It is filed as tissue-based. Conditions: read-out: I50.
On to `COc1ccccc1NC(=O)CCN1CCC(Cc2ccccc2)CC1`, for which the IC50 was 963 nM.

Still in this assay, the particulars now being: read-out: I50 (converted).
Regarding `O=C(CCN1CCC(Cc2ccccc2)CC1)Nc1ccccc1`, the IC50 is 1510 nM and 1520 nM.
The same measure, in the same setting: next, `O=C(CCN1CCN2Cc3ccccc3CC2C1)Nc1ccccc1` (stereo unspecified): 1340 nM; `O=C(CCN1CCN2Cc3ccccc3CC2C1)Nc1ccccc1[N+](=O)[O-]` (stereo unspecified): 1320 nM and 1310 nM.
The same measure, in the same setting: next, `CCc1ccccc1NC(=O)CCN1CCC(Cc2ccccc2)CC1`: 477 nM and 485 nM; `O=C(CCN1CCN2Cc3[nH]c4ccccc4c3CC2C1)Nc1ccccc1F` (stereo unspecified): 1280 nM and 1270 nM.
The same measure, in the same setting: next, `O=C(NCCN1CCN(Cc2ccccc2)CC1)c1ccccc1I`: 345 nM and 401 nM; `Cc1ccccc1C(=O)NCCN1CCN(Cc2ccccc2)CC1`: 7120 nM and 7110 nM; `O=C(CCN1CCN(Cc2ccccc2)CC1)Nc1ccccc1F`: 1320 nM and 908 nM.
Take `O=C(NCCN1CCN(Cc2ccccc2)CC1)c1ccccc1`: the IC50 was 6940 nM and 8500 nM.
As to `O=C(NCCN1CCN(Cc2ccccc2)CC1)c1ccccc1Cl`, the IC50 was 696 nM and 838 nM.
Regarding `NN1CCN2Cc3[nH]c4ccccc4c3CC2C1` (stereo unspecified), the IC50 was 925 nM.
`CCc1ccccc1NC(=O)CCN1CCN2Cc3[nH]c4ccccc4c3CC2C1` (stereo unspecified): the IC50 was 634 nM.
On the same count and under the same terms, then `O=C(CCN1CCN(Cc2ccccc2)CC1)Nc1ccccc1`, with 2170 nM and 2200 nM.
As to `O=C(CCN1CCC(Cc2ccccc2)CC1)Nc1ccccc1F`, the IC50 is 832 nM and 822 nM.
Consider `CCc1ccccc1NC(=O)CCN1CCN(Cc2ccccc2)CC1`, for which the IC50 is 778 nM and 939 nM.
Take `COc1ccccc1C(=O)NCCN1CCN2Cc3[nH]c4ccccc4c3CC2C1` (stereo unspecified): the IC50 was 364 nM.
With `O=C(NCCN1CCC(Cc2ccccc2)CC1)c1ccccc1`, the IC50 was 1550 nM and 1740 nM.
Regarding `Cc1ccccc1C(=O)NCCN1CCC(Cc2ccccc2)CC1`, the IC50 is 1070 nM and 1190 nM.
Still for that read-out and setting: then `O=C(CCN1CCN(Cc2ccccc2)CC1)Nc1ccccc1[N+](=O)[O-]`, with 1700 nM and 2040 nM; and `CCc1ccccc1NC(=O)CCN1CCN2Cc3ccccc3CC2C1` (stereo unspecified), with 525 nM and 523 nM; and `c1ccc2c3c([nH]c2c1)CN1CCNCC1C3` (stereo unspecified), with 535 nM.
Same read-out and setting: next, `O=C(CCN1CCN(Cc2ccccc2)CC1)Nc1ccccc1Cl`: 836 nM and 1010 nM.
Still for that read-out and setting: then `O=C(CCN1CCN2Cc3[nH]c4ccccc4c3CC2C1)Nc1ccccc1Cl` (stereo unspecified), with 979 nM and 978 nM.
For `O=C(NCCN1CCN(Cc2ccccc2)CC1)c1ccccc1Br`, the IC50 was 421 nM and 497 nM.
Regarding `ClN1CCN2Cc3[nH]c4ccccc4c3CC2C1` (stereo unspecified), the IC50 was 206 nM.
On the same count and under the same terms, then `COc1ccccc1NC(=O)CCN1CCC(Cc2ccccc2)CC1`, with 965 nM; and `O=[N+]([O-])N1CCN2Cc3[nH]c4ccccc4c3CC2C1` (stereo unspecified), with 375 nM; and `O=C(NCCN1CCC(Cc2ccccc2)CC1)c1ccccc1Cl`, with 799 nM and 785 nM.
The same measure, in the same setting: next, `CN1CCN2Cc3[nH]c4ccccc4c3CC2C1` (stereo unspecified): 283 nM; `O=C(CCN1CCN2Cc3[nH]c4ccccc4c3CC2C1)Nc1ccccc1` (stereo unspecified): 1600 nM; `O=C(CCN1CCN2Cc3[nH]c4ccccc4c3CC2C1)Nc1ccccc1[N+](=O)[O-]` (stereo unspecified): 1740 nM.
The same measure, in the same setting: then `O=C(CCN1CCN2Cc3ccccc3CC2C1)Nc1ccccc1Cl` (stereo unspecified), with 677 nM and 676 nM; and `O=C(CCN1CCC(Cc2ccccc2)CC1)Nc1ccccc1Cl`, with 561 nM and 560 nM; and `O=C(NCCN1CCC(Cc2ccccc2)CC1)c1ccccc1Br`, with 661 nM and 673 nM.
As for `O=C(NCCN1CCN(Cc2ccccc2)CC1)c1ccccc1[N+](=O)[O-]`, the IC50 was 1320 nM and 1570 nM.
